According to patent publication US20110269777A1, “METHODS AND COMPOSITIONS FOR TREATING SCHIZOPHRENIA USING ANTIPSYCHOTIC COMBINATION THERAPY” (Medivation Neurology, Inc., priority 2007, published 2011):
Where a name gives a salt, the structure may show the parent alone.

Assays:
[1] = tested on: NMDA-induced currents in cultured rat hippocampus neurons (NMDA receptors); experiment: NMDA-induced current blocking, patch clamp, whole cell configuration; type: cell-based; conditions: for Effect on the blocking effect of MK-801 on NMDA-induced currents: preliminary application before MK-801
Experimental: Experiments were carried out by the patch clamp method on freshly isolated neurons of a rat brain cortex or on cultured rat hippocampus neurons. Neurons for cultivation were obtained from the hippocampus of neonatal rats (1-2 days) by the method of trypsinization followed by pipetting. Cells suspended in culture medium were placed in 3 mL quantities into the wells of a 6-well planchette (Nunc) or into Petri dishes, in which glasses coated with poly-L-lysine had first been placed. The cell concentration as a rule was […]. The culture medium consisted of Eagle's minimum medium and a DME/F12 medium (1:1) supplemented with 10% calf serum, 2 mM glutamine, 50 μg/mL gentamycin, 15 mM glucose and 20 mM KCl, with the pH brought to between 7.0 and 7.4 using NaHCO3. Planchettes containing cultures were placed in a CO2— incubator at 37° C. and 100% humidity. Cytosine arabinoside (10-20 μL) was added on the second to third day of cultivation. After 6-7 days of cultivation 1 mg/mL glucose was added to the medium, or the medium was exchanged, depending on the following experiment. The cultured hippocampus neurons were placed in a 0.4 mL working chamber. The working solution had the following composition: 150.0 mM NaCl, 5.0 mM KCl, 2.6 mM CaCl2, 2.0 mM MgSO4×7H2O, 10 mM HEPES, and 15.0 mM Glucose, at pH 7.36.
Transmembrane currents produced by application of NMDA were registered by the patch clamp electrophysiological method in the whole cell configuration. Application of substances was done by the method of rapid superfusion. Currents were registered with the aid of borosilicate microelectrodes (resistance […]) filled with the following composition: 100.0 mM KCl, 11.0 mM EGTA, 1.0 mM CaCl2, 1.0 mM MgCl2, 10.0 mM HEPES, and 5.0 mM ATP, at pH 7.2. An EPC-9 instrument (HEKA, Germany) was used for registration. Currents were recorded on the hard disk of a Pentium-IV PC using the pulse program, which is also purchased from HEKA. The results were analyzed with the aid of the Pulsefit program (HEKA).

[2] = tested on: patients with schizophrenia, paranoid type; experiment: Double-blind placebo-controlled clinical study, neurocognitive assessment tests; type: in vivo, human
Experimental: (§1) A double-blind, placebo-controlled clinical study was conducted to evaluate the effect of a combination therapy of risperidone (3-[2-[4-(6-fluoro-1,2-benzoxazol-3-yl)piperidin-1-yl]ethyl]-2-methyl-6,7,8,9-tetrahydropyrido[2,1-b]pyrimidin-4-one) plus dimebon (2,8-dimethyl-5-(2-(6-methyl-3-pyridyl)ethyl)-2,3,4,5-tetrahydro-1H-pyrido[4,3-b]indole dihydrochloride) for treatment of chronic schizophrenia compared to risperidone treatment alone. The treatment trial was designed as randomized placebo-controlled, double-blind study of 60 patients meeting diagnostic criteria for schizophrenia, paranoid type, and episodic course (DSM IV-295.30).
(§2) The study included 60 patients with a diagnosis of continuous paranoid and episodic-progressive schizophrenia with a current condition of drug remission or development of drug remission, without regard to the syndrome determining the current mental status. […] According to DSM-IV, these patients met criteria 295.30, schizophrenia, paranoid type, […]. Patients were selected to participate in the study according to the following criteria: (1) inclusion criteria: male patients, 18 year old or older, schizophrenia, paranoid type, and episodic course in remission or partial remission and responders or partial responders to risperidone; and (2) exclusion criteria: excitement, impulsiveness or aggressive behavior (more than moderate), non-responders to antipsychotic treatment including risperidone, having mental disorders other than (or in addition to) schizophrenia, necessity of other treatment and severe acute somatic diseases or decompensated chronic somatic diseases.
(§3) In the first stage of the study (2 weeks), patients who provide an informed consent for participation in the study and who met the inclusion/exclusion criteria were switched to monotherapy with risperidone (dose adjustment of risperidone in range from 2 mg to 6 mg per day), and the clinical stability of the patients was evaluated weekly over two weeks. […] Again, clinical stability of the study participants was evaluated weekly for four weeks. In the third stage (8 weeks), after 4 weeks of monotherapy with risperidone, patients were divided into two groups. Group 1 received dimebon, (20 mg three times daily, n=23) in addition to risperidone therapy. Group 2 received a placebo (n=24) in addition to risperidone therapy. Again, clinical stability of the study participants was evaluated weekly for eight weeks. In the fourth stage (follow-up period), 6 months after completion of therapy within the framework of the protocol, the stability of the characteristics achieved in the course of the study were evaluated. In the fourth stage, clinical stability of the study participants was evaluated monthly for six months.
(§4) The study was conducted as follows. The patients were evaluated clinically and by psychopathological (descriptive) methods during every visit. The patients were evaluated according to the psychometric method at the end of the first period, at the end of the second period, after 4 weeks of the third period and at the end of the third period using the following criteria (A) Efficacy assessment scales such as (1) Positive and Negative Syndrome Scale (PANSS scale; Kay, S. R., Fiszbein, A., and Opler, L. A., Schizophrenia Bulletin 13(2):261-76 (1987)); (2) Clinical Global Impression-Severity (CGI-S) and Clinical Global Impression-Improvement (CGI-I); (3) Calgary depression rating scale (Addington, D., Addington, J., and Maticka-Tyndale E., British J. Psych. Suppl. 22:39-44 (1993)); and (4) Negative Symptoms Assessment-16 (NSA-16) (Alphs, L., Summerfelt, A., Lann, H., and Muller, R. J., Psychopharm. Bull. 25:159-163 (1989)); and (B) Safety scales such as (1) the Barnes Akathisia Rating Scale (BARS) (Barnes, T. R., British J. Psych. 154:672-676 (1989)); and (2) the Simpson-Angus Rating Scale (SARS) (Simpson, G. N. and Angus, J. W. S., Acta Psych. Scand. 212(suppl. 44):11-19 (1970)). […]

[3] = tested on: patients with schizophrenia, paranoid type; experiment: Double-blind placebo-controlled clinical study, efficacy assessment scales (PANSS, CGI, Calgary, NSA-16); type: in vivo, human
Experimental: as §1, §2, §3, §4

[4] = tested on: patients with schizophrenia, paranoid type
[5] = end (8 weeks dimebon + risperidone)
[6] = start (before adding dimebon to risperidone)
[7] = end (8 weeks dimebon 20 mg three times daily + risperidone)

N[C@H](CCCP(=O)(O)O)C(=O)O [D-AP5, D-2-amino-5-phosphonovaleric acid, reference compound]
Effect on the blocking effect of MK-801 on NMDA-induced currents [1]: did not decrease

Cc1ccc2c(c1)c1c(n2CCc2ccc(C)nc2)CCN(C)C1 [Dimebon, 2,8-dimethyl-5-[2-(6-methylpyridyl-3)ethyl]-2,3,4,5-tetrahydro-1H-pyrido[4,3-b]indole dihydrochloride]
verbal associative memory, psychomotor speed, visual-spatial memory and number aspects of executive functioning ([2]; dimebon group, start to end of 8 weeks on risperidone background): significant improvement
Benton test: sum error [2, 5]: 6.5 ± 4.4
Benton test: sum reconst [2, 5]: 6 ± 2.21
Bourdohn test: attention concentration [2, 5]: 0.986 ± 0.013
Bourdohn test: attention productivity [2, 5]: 497 ± 170
Bourdohn test: attention stability [2, 5]: 0.009 ± 0.006
CAT: correct answer account [2, 5]: 37 ± 8.2
CAT: reaction time [2, 5]: 630.17 ± 195.55
Schulte tables: sum time [2, 5]: 166 ± 64
Text 1 Reconstruction 1. quantity of elements [2, 5]: 7 ± 2.6
Text 2 Reconstruction 1 quantity of elements [2, 5]: 9 ± 3.0
Tower of London - correct score [2, 5]: 3.26
Tower of London - execution time [2, 5]: 234 ± 115
Tower of London - sum total time > 60 sec [2, 5]: 0 ± 1.5
Tower of London -move score [2, 5]: 34 ± 19
Wechsler memory scale, subtest V: series A [2, 5]: 6 ± 0.9
Wechsler memory scale, subtest V: sum A and B [2, 5]: 9.5 ± 2.7
Wechsler memory scale, subtest V: sum A and B, (T-scores) [2, 5]: 8 ± 2.3
Wechsler memory scale, subtest VII: sum comlex [2, 5]: 4.5 ± 3.34
Wechsler memory scale, subtest VII: sum simple [2, 5]: 17 ± 2.9
Wechsler memory scale, subtestV: series B [2, 5]: 4 ± 0.9
Wechsler test, subtest VII: Symbol coding [2, 5]: 6 ± 1.4
Wisconsin CS test - conceptual level responses, T score [2, 5]: 44 ± 6.7
Wisconsin CS test - nonperseverative errors, T score [2, 5]: 43 ± 9.6
Wisconsin CS test - perseverative responses, T score [2, 5]: 45 ± 5.53
Wisconsin CS test - total error - T score [2, 5]: 43 ± 8.1
Wisconsin CS test perseverative errors, T score [2, 5]: 44 ± 5.6
Wisconsin CS test: categories completed [2, 5]: 5 ± 1.9
Wisconsin CS test: total correct responses [2, 5]: 78 ± 14
Benton test: sum error [2, 6]: 8 ± 3.8
Benton test: sum reconst [2, 6]: 5 ± 1.7
Bourdohn test: attention concentration [2, 6]: 0.975 ± 0.03
Bourdohn test: attention productivity [2, 6]: 399 ± 123
Bourdohn test: attention stability [2, 6]: 0.01 ± 0.01
CAT: correct answer account [2, 6]: 35 ± 8.5
CAT: reaction time [2, 6]: 606.74±
Schulte tables: sum time [2, 6]: 160 ± 105
Text 1 Reconstruction 1. quantity of elements [2, 6]: 5 ± 2.3
Text 2 Reconstruction 1 quantity of elements [2, 6]: 7 ± 2.7
Tower of London - correct score [2, 6]: 2 ± 1.1
Tower of London - execution time [2, 6]: 298 ± 227
Tower of London - sum total time > 60 sec [2, 6]: 1.5 ± 3
Tower of London -move score [2, 6]: 46 ± 25
Wechsler memory scale, subtest V: series A [2, 6]: 6 ± 1
Wechsler memory scale, subtest V: sum A and B [2, 6]: 10 ± 1.7
Wechsler memory scale, subtest V: sum A and B, (T-scores) [2, 6]: 9 ± 2.3
Wechsler memory scale, subtest VII: sum comlex [2, 6]: 3 ± 2.7
Wechsler memory scale, subtest VII: sum simple [2, 6]: 14 ± 4
Wechsler memory scale, subtestV: series B [2, 6]: 4 ± 1.2
Wechsler test, subtest VII: Symbol coding [2, 6]: 5 ± 1.8
Wisconsin CS test - conceptual level responses, T score [2, 6]: 43 ± 5.9
Wisconsin CS test - nonperseverative errors, T score [2, 6]: 41 ± 7.9
Wisconsin CS test - perseverative responses, T score [2, 6]: 43 ± 8.38
Wisconsin CS test - total error - T score [2, 6]: 43 ± 6.8
Wisconsin CS test perseverative errors, T score [2, 6]: 43 ± 8.21
Wisconsin CS test: categories completed [2, 6]: 4 ± 1.7
Wisconsin CS test: total correct responses [2, 6]: 79 ± 16
Blockade of NMDA-induced currents (%) ([1]; at 10 μM, cultured rat hippocampus neurons): By 50-70% at 10 μM
IC50 ([1]; average, read-out: IC50, blocking of currents caused by application of NMDA): 7.7 ± 1.9 µM
Effect on the blocking effect of MK-801 on NMDA-induced currents [1]: capable of reducing
total PANSS score relative to placebo ([3]; adjunctive dimebon on background risperidone therapy): significant reduction
% improvement [3, 7]: 8.14 ± 49.4%
CGI I [3, 7]: 2.7 ± 1.0
CGI-S [3, 7]: 3.9 ± 1.2
Calgary scale of depression [3, 7]: 8.1 ± 9.97
NSA-16 [3, 7]: 48.5 ± 22.7
PANSS general psychopathol [3, 7]: 31.4 ± 11.1
PANSS negative [3, 7]: 18.48 ± 7.01
PANSS positive [3, 7]: 12.0 ± 5.9
PANSS total [3, 7]: 61.9 ± 22.2
CGI-S [3, 6]: 4.3 ± 1
Calgary scale of depression [3, 6]: 11.6 ± 11.6
NSA-16 [3, 6]: 64.65 ± 22.8
PANSS general psychopathol [3, 6]: 39.1 ± 8.1
PANSS negative [3, 6]: 22.5 ± 5.15
PANSS positive [3, 6]: 16.9 ± 4.6
PANSS total [3, 6]: 78.5 ± 14.1
safety issues ([4]; dimebon 20 mg three times daily + risperidone, 8 weeks): no safety issues
BARS and SARS safety scales, difference between study groups ([4]; dimebon group vs placebo group): no differences
